Laboratory results taken from patent US20180015100A1, “COMBINATION PRODUCTS FOR THE TREATMENT OF BACTERIAL INFECTIONS AND METHODS OF PRODUCING OR DOSING OF SAME” (priority 2016, published 2018).
Like-named read-outs stand apart in the source and are kept apart here. Marks after values point to notes of the source that are not given here.

Tests used:
[1] = cited from earlier work
[2] = cited from earlier work; for bioavailability / fCmax: po
[3] = tested on: 13 Enterobacteriaceae isolates; assay type: cell-based; conditions: with clavulanate 2:1
[4] = tested on: Citrobacter freundii isolates; assay: MIC of cephalosporins alone or with clavulanate/tazobactam; assay type: cell-based; conditions: clavulanate 2:1, tazobactam 4 μg/mL
[5] = tested on: ESBL-producing Enterobacteriaceae isolates (panel of nineteen); assay: MIC of cephalosporins alone or with clavulanate/tazobactam, whole panel; assay type: cell-based; conditions: cephalosporin alone; 19 isolates
[6] = tested on: 385 Escherichia coli and 126 Klebsiella pneumoniae isolates; assay: MIC, MIC50 and MIC90 by reference broth microdilution against 511 UTI/bloodstream isolates (USA and Europe 2014-2015); assay type: cell-based; conditions: 511 isolates
[7] = tested on: Escherichia coli isolates; assay: MIC of cephalosporins alone or with clavulanate/tazobactam; assay type: cell-based; conditions: clavulanate 2:1, tazobactam 4 μg/mL
[8] = tested on: Enterobacter aerogenes isolates; assay: as above; assay type: cell-based; conditions: Klebsiella aerogenes, clavulanate 2:1, tazobactam 4 μg/mL
[9] = tested on: Klebsiella oxytoca isolates; assay: as above; assay type: cell-based; conditions: clavulanate 2:1, tazobactam 4 μg/mL
[10] = tested on: Klebsiella pneumoniae isolates; assay: as above; assay type: cell-based; conditions: clavulanate 2:1, tazobactam 4 μg/mL
[11] = tested on: Enterobacter cloacae isolates; assay: as above; assay type: cell-based; conditions: clavulanate 2:1, tazobactam 4 μg/mL
CTX-M-15 Strain = assay: MIC of cephalosporins without and with CLV (Table 16); assay type: cell-based; conditions: for MIC: read-out: MIC CTX-M-15 Strain − CLV; for MIC CTX-M-15 Strain + CLV: with CLV
AECO001 = assay: MIC of cephalosporins (Table 16); assay type: cell-based
CTX-M-15 = CTX-M-15 (Escherichia coli, UniProt Q9EXV5); assay: Competition assay with nitrocefin (IC50); assay type: biochemical
Chain of CTX-M-15 (Q9EXV5 entry or part of it): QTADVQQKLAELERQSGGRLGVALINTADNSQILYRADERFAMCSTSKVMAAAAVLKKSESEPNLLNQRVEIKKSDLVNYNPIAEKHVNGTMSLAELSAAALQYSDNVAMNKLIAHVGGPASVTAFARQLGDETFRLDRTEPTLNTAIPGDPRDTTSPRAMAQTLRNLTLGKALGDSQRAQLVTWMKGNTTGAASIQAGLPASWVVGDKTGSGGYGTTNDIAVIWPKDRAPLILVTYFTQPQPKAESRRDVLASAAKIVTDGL

[12] = tested on: COCC1=C(C(=O)O)N2C(=O)[C@@H](NC(=O)/C(=N\OC)c3csc(N)n3)[C@H]2SC1; assay: purified protein, by the assay type; conditions: other: CTX-M-15-mediated hydrolysis; pH 7.0
[13] = tested on: C=CC1=C(C(=O)O)N2C(=O)[C@@H](NC(=O)/C(=N\OCC(=O)O)c3csc(N)n3)[C@H]2SC1; assay: purified protein, by the assay type; conditions: other: CTX-M-15-mediated hydrolysis; pH 7.0

Row | Molecule | Mean Cmax ([2]; in vivo, 200 mg) | Mean fCmax ([2]; in vivo, 200 mg) | bioavailability ([2]; in vivo) | MIC ([4]; ACFR1034 (CTX-M-15, TEM-OSBL)) | MIC ([4]; ACFR1035 (CTX-M-3, TEM-OSBL)) | MIC ([7]; AECO001 (no ESBL)) | MIC ([7]; AECO1078 (CTX-M-15)) | MIC ([7]; AECO1157 (CTX-M-15, TEM-OSBL)) | MIC ([7]; AECO1159 (CTX-M-15)) | MIC ([7]; AECO1169 (CTX-M-1, TEM-OSBL)) | MIC ([7]; AECO1172 (CTX-M-14)) | MIC ([8]; AEAE1027 (CTX-M-14)) | MIC ([8]; AEAE1029 (CTX-M-15)) | MIC ([9]; AKOX1005 (SHV-2, TEM-1, DHA-1)) | MIC ([9]; AKOX1009 (CTX-M-15)) | MIC ([10]; AKPN1159 (SHV-12)) | MIC ([10]; AKPN1161 (SHV-7)) | MIC ([10]; AKPN1162 (CTX-M-15, SHV-12)) | MIC ([10]; AKPN1166 (CTX-M-14, SHV-12)) | MIC ([10]; AKPN1167 (SHV-2)) | other results
1 | CO/N=C(\C(=O)N[C@@H]1C(=O)N2C(C(=O)O)=C(/C=C\c3scnc3C)CS[C@H]12)c1csc(N)n1 [Cefditoren, cefditoren] | 1800 ng/mL | 0.22 µg/mL | 14% |  |  |  |  |  |  |  |  |  |  |  |  |  |  |  |  |  | Protein binding (% bound) ([1]; plasma): 88 (plasma) % bound; Mean unbound plasma concentration following one elimination half-life ([2]; in vivo): 0.11 µg/mL; peak free drug concentrations ([2]; in vivo): ≤ 0.3 µg/mL; MICs range against ESBL+ isolates (Table 3) [3]: 0.12 to 2 µg/mL
2 | CO/N=C(\C(=O)N[C@@H]1C(=O)N2C(C(=O)[O-])=C(C[N+]3(C)CCCC3)CS[C@H]12)c1csc(N)n1 [Cefepime, cefepime] |  |  |  | > 32 µg/mL | > 32 µg/mL | ≤ 0.031 µg/mL | > 32 µg/mL | 32 µg/mL | > 32 µg/mL | > 32 µg/mL | > 32 µg/mL | 8 µg/mL | > 32 µg/mL | 0.25 µg/mL | 32 µg/mL | 2 µg/mL | 1 µg/mL | > 32 µg/mL | 4 µg/mL | 8 µg/mL | ESBL-producing isolates with MIC<8 μg/mL [5]: 4 of 19; MIC50 [6]: > 16 µg/mL; EUCAST % I ([6]; EUCAST 2016 criteria): 10.0%; MIC90 ([6]; read-out: MIC90): > 16 µg/mL; MIC ([7]; AECO1147 (CTX-M-15)): 4 µg/mL; MIC ([11]; AECL1065 (CTX-M-15)): > 32 µg/mL; MIC ([11]; AECL1067 (CTX-M-3)): > 32 µg/mL
3 | C=CC1=C(C(=O)O)N2C(=O)[C@@H](NC(=O)/C(=N\OCC(=O)O)c3csc(N)n3)[C@H]2SC1 [Cefixime, cefixime] | 2000 ng/mL | 0.7 µg/mL | 40-90% | > 64 µg/mL | > 64 µg/mL | 1 µg/mL | > 64 µg/mL | > 64 µg/mL | > 64 µg/mL | 16 µg/mL | 16 µg/mL | 8 µg/mL | > 64 µg/mL | 16 µg/mL | > 64 µg/mL | 32 µg/mL | 32 µg/mL | > 64 µg/mL | > 64 µg/mL | 8 µg/mL | MIC (CTX-M-15 Strain): > 64 µg/mL; MIC CTX-M-15 Strain + CLV (CTX-M-15 Strain): 2 µg/mL; MIC (AECO001): 1 µg/mL; Protein binding (% bound) ([1]; serum): 65 (serum) % bound; IC50 (CTX-M-15): 20 µM; Mean unbound plasma concentration following one elimination half-life ([2]; for highest plasma concentration from previous row): 0.65 (400 mg) μg/mL; Mean Cmax ([2]; in vivo, 400 mg): 3700 ng/mL; Mean fCmax ([2]; in vivo, 400 mg): 1.3 µg/mL; fCmax ([2]; in vivo): 2.7 µg/mL; Elimination half-life ([2]; plasma): 3-4^b h; MIC ([11]; AECL1065 (CTX-M-15)): > 64 µg/mL; MIC ([11]; AECL1067 (CTX-M-3)): > 64 µg/mL
4 | CO/N=C(\C(=O)N[C@@H]1C(=O)N2C(C(=O)O)=C(COC(C)=O)CS[C@H]12)c1csc(N)n1 [Cefotaxime, cefotaxime] |  |  |  |  |  |  |  |  |  |  |  |  |  |  |  |  |  |  |  |  | MIC (AECO001): 0.125 µg/mL; IC50 (CTX-M-15): 31 µM
5 | COCC1=C(C(=O)O)N2C(=O)[C@@H](NC(=O)/C(=N\OC)c3csc(N)n3)[C@H]2SC1 [Cefpodoxime, cefpodoxime] | 2300 ng/mL | 1.8 µg/mL | 40-90% | > 64 µg/mL | > 64 µg/mL | 0.5 µg/mL | > 64 µg/mL | > 64 µg/mL | > 64 µg/mL | > 64 µg/mL | > 64 µg/mL | > 64 µg/mL | > 64 µg/mL | 32 µg/mL | > 64 µg/mL | 64 µg/mL | 16 µg/mL | > 64 µg/mL | > 64 µg/mL | > 64 µg/mL | MIC ([7]; AECO1147 (CTX-M-15)): > 64 µg/mL; MIC (CTX-M-15 Strain): > 64 µg/mL; MIC CTX-M-15 Strain + CLV (CTX-M-15 Strain): 4 µg/mL; MIC (AECO001): 0.5 µg/mL; Protein binding (% bound) ([1]; plasma): 21-29 (plasma) % bound; Protein binding (% bound) ([1]; serum): 22-33 (serum); % bound; IC50 (CTX-M-15): 24 µM; Mean Cmax ([2]; in vivo, 100 mg): 1400 ng/mL; Mean fCmax ([2]; in vivo, 100 mg): 1.1 µg/mL; Mean Cmax ([2]; in vivo, 400 mg): 3900 ng/mL; half-life ([2]; in vivo, 800 mg): 2.9 h; fCmax ([2]; in vivo, 800 mg): approximately 5.4 μg/mL; Elimination half-life ([2]; in vivo): 2.1 to 2.8 h; Mean unbound plasma concentration following one elimination half-life ([2]; in vivo): 1.55 (400 mg) μg/mL; MIC ([11]; AECL1065 (CTX-M-15)): > 64 µg/mL; MIC ([11]; AECL1067 (CTX-M-3)): > 64 µg/mL
6 | CTX-M-15 (Escherichia coli) |  |  |  |  |  |  |  |  |  |  |  |  |  |  |  |  |  |  |  |  | Km [12]: 13 (10-16) μM; kcat [12]: 50 s⁻¹; kcat/Km [12]: 3.8e+06 M⁻¹ s⁻¹; Km [13]: 14 (11-18) μM; kcat [13]: 2 s⁻¹; kcat/Km [13]: 140000 M⁻¹ s⁻¹
